Converted amounts (≈) assume the structure as drawn. Like-named read-outs stand apart in the source and are kept apart here. Positions of bridges follow the written chain, without caps; N, C: chain ends. Non-standard residues stand in square brackets, D forms with d. Residues, ends and D or L forms follow the SMILES beside them. *: point of attachment. NMePhe(4-NMe2) = CN[C@@H](Cc1ccc(N(C)C)cc1)C(=O)O; Pip(4-oxo) = O=C1CCN[C@H](C(=O)O)C1; Picolinoyl(3-OH) = O=C(c1ncccc1O)*; Phg = N[C@H](C(=O)O)c1ccccc1; dAbu = CC[C@@H](N)C(=O)O
Tests used:
[1] = Stability in solution at pH 7 (HPLC purity over time); type: physicochemical; conditions: pH 7, 37° C.
Description: (§1) The stability of the aminoquinoline-cephalosporin_hybrid molecules given as examples was determined in solution at 37° C., at physiological pH (pH 7, phosphate buffer/acetonitrile, 75/25 v/v) and at acidic pH (pH 1, 0.1 M HCl/ethanol, 70/30 v/v) by high pressure liquid chromatography coupled to a UV-visible detector (Beckman Coulter ODS C18 column, 5 μm, 4.6×250 mm; eluents: A: 0.1% TFA, B: CH3CN/H2O 90/10 0.1% TFA, gradient: from 10% to 100% of B in 30 minutes, and then 100% of B for 10 minutes, flow rate 1 mL/minutes, λ=254 nm, volume injected: 10 μL).

[2] = system: Staphylococcus aureus MSSA CIP 4.83; experiment: Antibacterial activity (MIC/MBC); type: cell-based; conditions: S. aureus MSSA CIP 4.83; for MBC: read-out: MBC
[3] = system: S. pneumoniae PRSP CIP 104471; experiment: Antibacterial activity (MIC/MBC); type: cell-based, Streptococcus pneumoniae; conditions: Streptococcus pneumoniae; for MIC: read-out: MIC
[4] = system: S. pneumoniae PRSP clinical isolate; experiment: Antibacterial activity (MIC/MBC); type: cell-based, Streptococcus pneumoniae; conditions: Streptococcus pneumoniae; for MIC: PRSP, read-out: MIC
[5] = system: E. faecalis VRE CIP 104676; experiment: Antibacterial activity (MIC/MBC); type: cell-based, Enterococcus faecalis; conditions: Enterococcus faecalis, E. faecalis VRE CIP 104676; for MIC: read-out: MIC
H. influenzae CIP 102514 = experiment: Antibacterial activity (MIC/MBC); type: cell-based, Haemophilus influenzae; conditions: Haemophilus influenzae, CIP102514
[6] = system: S. aureus MRSA clinical isolate; experiment: Antibacterial activity (MIC); type: cell-based, Staphylococcus aureus; conditions: S. aureus MRSA clinical isolate
[7] = system: S. pneumoniae PSSP CQI 201; experiment: Antibacterial activity (MIC); type: cell-based, Streptococcus pneumoniae; conditions: S. pneumoniae PSSP CQI 201
S. pyogenes CIP 56.41T = experiment: Antibacterial activity (MIC/MBC); type: cell-based, Streptococcus pyogenes; conditions: S. pyogenes CIP 56.41T
[8] = Stability in solution at pH 1 (HPLC purity over time); type: physicochemical; conditions: pH 1, 37° C.
Description: as §1

[9] = Staphylococcus aureus, read-out: MIC
[10] = H. influenzae CIP 102514, read-out: MBC
[11] = H. influenzae CIP 102514, read-out: MIC

Row | Structure (SMILES) | MIC (H. influenzae CIP 102514; [11]) [µg/mL] | Purity of the hybrid molecules (as a percentage) as a function of time (hours) ([1]; time 0 h) [%] | Purity of the hybrid molecules (as a percentage) as a function of time (hours) ([1]; time 1 h) [%] | Purity of the hybrid molecules (as a percentage) as a function of time (hours) ([1]; time 2 h) [%] | Purity of the hybrid molecules (as a percentage) as a function of time (hours) ([1]; time 4 h) [%] | Purity of the hybrid molecules (as a percentage) as a function of time (hours) ([1]; time 6 h) [%] | Purity of the hybrid molecules (as a percentage) as a function of time (hours) ([1]; time 8 h) [%] | Purity of the hybrid molecules (as a percentage) as a function of time (hours) ([1]; time 15 h) [%] | Purity of the hybrid molecules (as a percentage) as a function of time (hours) ([1]; time 24 h) [%] | MBC ([2]; Staphylococcus aureus) [µg/mL] | MIC [2, 9] [µg/mL] | MBC [3] [µg/mL] | MIC [3] [µg/mL] | MBC [4] [µg/mL] | MIC [4] [µg/mL] | MBC [5] [µg/mL] | MIC [5] [µg/mL] | MBC (H. influenzae CIP 102514; [10]) [µg/mL] | other results
1 | CC[C@H]1NC(=O)[C@@H](NC(=O)c2ncccc2O)[C@@H](C)OC(=O)[C@H](c2ccccc2)NC(=O)[C@@H]2CC(=O)CCN2C(=O)[C@H](Cc2ccc(N(C)C)cc2)N(C)C(=O)[C@@H]2CCCN2C1=O [Pristinamycin IA, reference compound] ({Picolinoyl(3-OH)}-T[dAbu]P[NMePhe(4-NMe2)][Pip(4-oxo)][Phg]; ester 1-C) |  |  |  |  |  |  |  |  |  |  |  |  |  |  |  |  |  |  | MIC [2]: 2.5 µg/mL (≈ 2.88 µM); MIC [6]: 5 µg/mL (≈ 5.77 µM); MIC [7]: 0.31 µg/mL (≈ 0.358 µM); MIC (S. pyogenes CIP 56.41T): 1.25 µg/mL (≈ 1.44 µM)
2 | CC(=O)OCC1=C(C(=O)O)N2C(=O)[C@@H](NC(=O)CCCNc3ccnc4cc(Cl)ccc34)[C@H]2SC1 [PA 1053, (6R,7R-3-Acetoxymethyl-7-[4-7-chloroquinolin-4-ylamino)-butyrylamino]-8-oxo-5-thia-1-aza-bicyclo[4.2.0]oct-2-ene-2-carboxylic acid] |  |  |  |  |  |  |  |  |  | > 50 | 0.78 (≈ 1.5 µM) | 3.12 (≈ 6.01 µM) | 1.56 (≈ 3.01 µM) | 6.25 (≈ 12 µM) | 3.12 (≈ 6.01 µM) | > 50 | 25 (≈ 48.2 µM) |  | MBC (H. influenzae CIP 102514): 25 µg/mL (≈ 48.2 µM); MIC (H. influenzae CIP 102514): 6.25 µg/mL (≈ 12 µM)
3 | CC(=O)OCC1=C(C(=O)O)N2C(=O)[C@@H](NC(=O)CNc3ccnc4cc(Cl)ccc34)[C@H]2SC1.Cl [PA 1089, (6R,7R)-3-Acetoxymethyl-7-[2-(7-chloroquinolin-4-ylamino)-acetylamino]-8-oxo-5-thia-1-aza-bicyclo[4.2.0]oct-2-ene-2-carboxylic acid hydrochloride] | 3.12 | 100 | 100 | 100 | 100 | 98 | 97 | 92 | 83 | 0.39 | 0.2 | 0.39 | 0.39 | 0.39 | 0.39 | 12.5 | 6.25 | > 50 | Purity of the hybrid molecules (as a percentage) as a function of time (hours) ([8]; time 0 h): 100%; Purity of the hybrid molecules (as a percentage) as a function of time (hours) ([8]; time 1 h): 96%; Purity of the hybrid molecules (as a percentage) as a function of time (hours) ([8]; time 2 h): 88%; Purity of the hybrid molecules (as a percentage) as a function of time (hours) ([8]; time 4 h): 81%; Purity of the hybrid molecules (as a percentage) as a function of time (hours) ([8]; time 24 h): 24%
4 | CC(=O)OCC1=C(C(=O)O)N2C(=O)[C@@H](NC(=O)CNc3ccnc4cc(Cl)ccc34)[C@H]2[S+]([O-])C1.Cl (stereo partly drawn) [PA 1088, (6R,7R-3-Acetoxymethyl-7-[2-7-chloroquinolin-4-ylamino)acetylamino]-5,8-dioxo-5λ^4-thia-1-aza-bicyclo[4.2.0]oct-2-ene-2-carboxylic acid hydrochloride] |  | 100 | 100 | 100 | 100 |  |  |  | 81 |  |  |  |  |  |  |  |  |  | 

Now from value to compound, other results behind:

Row | MIC (H. influenzae CIP 102514; [11]) [µg/mL] | Structure (SMILES) | Purity of the hybrid molecules (as a percentage) as a function of time (hours) ([1]; time 0 h) [%] | Purity of the hybrid molecules (as a percentage) as a function of time (hours) ([1]; time 1 h) [%] | Purity of the hybrid molecules (as a percentage) as a function of time (hours) ([1]; time 2 h) [%] | Purity of the hybrid molecules (as a percentage) as a function of time (hours) ([1]; time 4 h) [%] | Purity of the hybrid molecules (as a percentage) as a function of time (hours) ([1]; time 6 h) [%] | Purity of the hybrid molecules (as a percentage) as a function of time (hours) ([1]; time 8 h) [%] | Purity of the hybrid molecules (as a percentage) as a function of time (hours) ([1]; time 15 h) [%] | Purity of the hybrid molecules (as a percentage) as a function of time (hours) ([1]; time 24 h) [%] | MBC ([2]; Staphylococcus aureus) [µg/mL] | MIC [2, 9] [µg/mL] | MBC [3] [µg/mL] | MIC [3] [µg/mL] | MBC [4] [µg/mL] | MIC [4] [µg/mL] | MBC [5] [µg/mL] | MIC [5] [µg/mL] | MBC (H. influenzae CIP 102514; [10]) [µg/mL] | other results
5 | 50 | CC(=O)OCC1=C(C(=O)O)N2C(=O)[C@@H](NC(=O)C3CCN(c4ccnc5cc(Cl)ccc45)CC3)[C@H]2SC1.Cl [PA 1074] | 100 | 100 | 100 | 100 | 100 | 97 | 88 | 87 | 1.56 | 0.78 | 50 | 25 | 50 | 25 | > 50 | 50 | > 50 | 
6 | 50 (≈ 211 µM) | O=C(O)CNc1ccnc2cc(Cl)ccc12 [PA 1117, (7-Chloroquinolin-4-ylamino)acetic acid, reference compound] |  |  |  |  |  |  |  |  |  | > 50 |  | 50 (≈ 211 µM) |  | 50 (≈ 211 µM) |  | > 50 |  | 

— patent US20070060558A1 (PALUMED S.A., priority 2004, published 2007)
